Source: patent US20210186834A1, “TAHITI VANILLA EXTRACT AND 4-[(1E,3S)-3-ETHENYL-3,7-DIMETHYLOCTA-1,6-DIENYL]PHENOL FOR COMBATTING CUTANEOUS AGEING” (PIERRE FABRE DERMO-COSMETIQUE, priority 2018, published 2021)

Columns and labels:
Type in all cases: cell-based
IL8 = assay: Expression of IL8 by immunofluorescence after acute UVA stress on normal human fibroblasts; conditions: bakuchiol 0.5 μg/ml, UVA 60 J/cm^2, 24 h after irradiation; P<0.05 versus non-treated conditions
Method: (§1) The fibroblasts are cultured in a standard culture medium for 36 hours, the products to test (vehicle (DMSO), bakuchiol (0.5 μg/ml), vanilla extract (0.05%, p/v) and the combination thereof (same concentrations)) are added to the culture medium one hour before the UVA radiation test. This test consists in a photo-ageing stress: the fibroblasts are irradiated by UVA at a dose of 60 J/cm^2 (Waldmann UVA lamp). A condition without irradiation is also realised. The fibroblasts are next sampled 24 h after irradiation for immunofluorescence analyses. All the experimental conditions are realised with N=3 donors. The fluorescence was quantified using Nikon NIS Element software in order to obtain an average fluorescence per cell and per condition. The protocol used is rigorously the same as that described in example 1. The products tested are the same, the concentrations also. The expression of IL8 is then quantified by immunofluorescence. The treatment of human fibroblasts with acute UVA stress induces a significant increase in the expression of IL8, going from 100% to 5300% (P<0.05) compared to the condition without irradiation. In addition, it appears that the treatment by UVA induces important morphological changes in the fibroblasts, going from a star-shaped model to a spindle-shaped model.

protein P16 = assay: Expression of P16 by immunofluorescence after acute UVA stress on normal human fibroblasts; conditions: bakuchiol 0.5 μg/mL, added 1 h before UVA 60 J/cm^2, sampled 24 h after irradiation, N=3 donors; P=NS versus the non-treated group
Method: The biological model used for this study consists of normal human dermis fibroblasts obtained from healthy donors. The fibroblasts are cultured in a standard culture medium for 36 hours, the products to test (vehicle (DMSO), bakuchiol (0.5 μg/ml), vanilla extract (0.05%, p/v) and the combination thereof (same concentrations)) are added to the culture medium one hour before the UVA radiation test. This test consists in a photo-ageing stress: the fibroblasts are irradiated by UVA at a dose of 60 J/cm^2 (Waldmann UVA lamp). A condition without irradiation is also realised. The fibroblasts are next sampled 24 h after irradiation for immunofluorescence analyses. All the experimental conditions are realised with N=3 donors. The fluorescence was quantified using Nikon NIS Element software in order to obtain an average fluorescence per cell and per condition. The treatment of human fibroblasts with acute UVA stress induces a significant increase in the expression of P16, going from 500 AU to almost 1000 AU, P<0.001, versus the non-stimulated condition. […] The statistics are produced using a one way variance analysis (one-way ANOVA) followed by a Dunnett test.

normal human fibroblasts = assay: Morphological changes of fibroblasts induced by exposure to UVA; conditions: bakuchiol 0.5 μg/ml, vanilla extract 0.05% (p/v), combination at the same concentrations; UVA 60 J/cm^2
Method: as §1

Structure (SMILES): C=C[C@@](C)(/C=C/c1ccc(O)cc1)CCC=C(C)C [bakuchiol, 4-[(1E,3S)-3-ethenyl-3,7-dimethylocta-1,6-dienyl]phenol]
- decrease of the expression of IL8 following exposure to UVA (IL8): 88.3%
- reduction of the expression of P16 following irradiation (protein P16): −44.4%
- effect on morphological changes (star-shaped to spindle-shaped) induced by exposure to UVA (normal human fibroblasts): prevention of the morphological changes
